Test results: patent publication US11161824B2, “Heterocyclic lipoxin analogs and uses thereof” (University College Dublin, National University of Ireland, …, priority 2016, dated 2021)

What was measured:
[1] = system: NFkB; experiment: LPS-induced NFkB-driven luciferase activity in THP-1 LUCIA monocytes; format: cell-based; details: for reduction of LPS-induced NFkB luciferase activity: 30 min pre-treatment, then 24 h with 50 ng/ml LPS, relative to LPS
Description: 1×10^5 THP-1 LUCIA monocytes were pre-treated for 30 min with native LXA4 1 (FIG. 1A), imidazole analogues 9 [(1R)-epimer (FIG. 1B) and (1S)-epimer (FIG. 1C)], vehicle or appropriate controls, at increasing doses ranging from 10^−12 M up to 10^−6 M. 10^8 HKLM was used as positive control for NFkB activation. After 24 h from stimulation with 50 ng/ml of LPS, supernatants were collected and NFkB-driven luciferase was measured. (d) Data are expressed as % Relative Luminescence Unit relative to LPS alone ±SEM (n=3), *=p<0.05, **=p<0.01, ***=p<0.001. Graphs display the statistical analysis of the tested compound vs LPS.
(§1) The experiments were based around a model which utilised 1×10^5/ml THP-1 monocytes stably expressing NFkB luciferase reporter gene (LUCIA).
(§2) Anti-inflammatory activity was assessed by testing 10 analogues (6 quinoxalines & 4 isoquinolines) in presence & absence of lipopolysaccharide (LPS). For each analogue, a dose-response from 10^−12 M up to 10^−6 M was performed. The vehicle control corresponded to 0.1% Ethanol. NFkB activator, Heat-Killed Listeria Monocytogenes (HKLM) (10^7 cells/ml), were used as positive control for luciferase induction. 10^−6 M Dexamethasone (Dex) was used as positive control for luciferase inhibition. […] Benzo-lipoxin A4 (BLX) was used as positive control for LXA4 analogues.
A 2-tailed, assuming unequal variance T-test analysis was performed on three independent experiments for each assay. P-values were considered significant when p<0.05. If p<0.05, then * or $; if p<0.01, then ** or $$ or ##; if p<0.001, then *** or $$$ or ###.
Cells were seeded in 96-well plates and pre-treated with increasing doses of LXA4, analogues or controls for 30 min, followed by 24 h of co-incubation with 50 ng/ml LPS. […] (*=statistical analysis vs LPS; $=statistical analysis vs LXA4)

[2] = system: NFkB; experiment: NFkB-driven luciferase activity in resting conditions (absence of LPS) in THP-1 LUCIA monocytes; format: cell-based; details: 10^-12 M to 10^-6 M, 24 h
Description: 1×10^5 THP-1 LUCIA monocytes were treated for 30 min with native (a) LXA4 1, its stable imidazole-lipoxin analogues (1R)-9 and (1S)-9, vehicle or appropriate controls, at increasing doses ranging from 10^−12 M up to 10^−6 M. After 24 h, supernatants were collected and NFkB-driven luciferase was measured. Data are expressed as % Relative Luminescence Unit relative to LPS alone ±SEM (n=3).
as §1, §2

[3] = system: Th1 cytokine release; experiment: LPS-induced Th1 cytokine release from THP-1 LUCIA monocytes; format: cell-based; details: 10^-11, 10^-9 or 10^-7 M; 50 ng/ml LPS 24 h; IL1β, IL6, IL12p70, IFNγ, TNF-α as per figure
Description: FIG. 2A-2E are graphs showing imidazole-lipoxin analogues (1R)-9 and (1S)-9 reduce LPS-induced Th1 cytokine release. 1×10^5 THP-1 LUCIA monocytes were pre-treated for 30 min with […], 10^−9 M or 10^−7 M of LXA4 1 and imidazole-lipoxin analogues (1R)-9 and (1S)-9, vehicle or appropriate controls. After 24 h from stimulation with 50 ng/ml of LPS, supernatants were collected and […] (FIG. 2A), IL6 (FIG. 2B), IL12p70 (FIG. 2C), IFNγ (FIG. 2D), and TNF-α (FIG. 2E) levels were measured. Data are expressed as % cytokine secretion relative to LPS alone ±SEM (n=3), *=p<0.05, **=p<0.01, ***=p<0.001.
FIG. 6A-6C are graphs showing that quinoxaline-lipoxin analogue (1R)-CT-4-43 inhibits LPS-induced Th1 cytokine release. 1×10^5 THP-1 LUCIA monocytes were pre-treated for 30 min with […], 10^−9 M or 10^−7 M of LXA4 and quinoxaline-lipoxin analogue (1R)-CT-4-43, vehicle or appropriate controls. After 24 h from stimulation with 50 ng/ml of LPS, supernatants were collected and IL13 (FIG. 6A), IL6 (FIG. 6B), and IFNγ (FIG. 6C) levels were measured. Data are expressed as % cytokine secretion relative to LPS alone ±SEM (n=3), *=p<0.05, **=p<0.01, ***=p<0.001.
FIG. 9A-9C are graphs showing that the isoquinoline-lipoxin analogue RB3 inhibit LPS-induced Th1 cytokine release. 1×10^5 THP-1 LUCIA monocytes were pre-treated for 30 min with 10^−11 M, 10^−9 M or 10^−7 M of LXA4 and isoquinoline-lipoxin analogue (1R)-RB3, vehicle or appropriate controls. After 24 h from stimulation with 50 ng/ml of LPS, supernatants were collected and IL1β(FIG. 9A), IL6 (FIG. 9B), and IL12p70 (FIG. 9C) levels were measured. Data are expressed as % cytokine secretion relative to LPS alone ±SEM (n=3), *=p<0.05, **=p<0.01, ***=p<0.001.

[4] = system: carrageenan-induced paw swelling; experiment: Murine carrageenan-induced paw swelling; format: in vivo, C57Bl/6 mice; details: 45 ng/mouse i.p. 30 mins before intrapaw 1% carrageenan; 4-72 h
Description: CT4-43 attenuates carageenan-induced paw swelling—Mice [male C57Bl/6] were administered vehicle [0.01% EtOH] or CT4-4 [45 ng/mouse i.p] 30 mins before intrapaw injection of 1% carageenan. Paw swelling was monitored over time [4-72 h] using an external lever gauge [Kroeplin]. Data are presented as mean+/−SEM, n=3 mice/treatment group.

CCCCC[C@@H](O)c1nc2ccccc2nc1/C=C/[C@@H](O)[C@@H](O)CCCC(=O)OC [(1R)-CT4-43, Methyl (5S,6R,E)-5,6-dihydroxy-8-(3-((R)-1-hydroxyhexyl)quinoxalin-2-yl)oct-7-enoate]
reduction of LPS-induced NFkB luciferase activity ([1]; 1 nM): 38.2±8.2%
reduction of LPS-induced NFkB luciferase activity ([1]; 10 nM): 34.8±4.2%
effect on LPS-induced NFkB-driven luciferase activity (in words) ([1]; doses 10^-12 M to 10^-6 M, 50 ng/ml LPS, 24 h): attenuating
potency in reducing LPS-induced NFkB activity, comparison in words ([1]; versus LXA4 or other analogues): significantly more potent than LXA4
NFkB-driven luciferase activity in resting conditions (in words) [2]: does not elicit
effect on LPS-induced Th1 cytokine release (in words) [3]: inhibits
effect on carrageenan-induced paw swelling (in words) [4]: attenuates
